According to US20260317272A1, “USE OF STROBILURIN TYPE COMPOUNDS FOR COMBATING PHYTOPATHOGENIC FUNGI CONTAINING AN AMINO ACID SUBSTITION F129L IN THE MITOCHONDRIAL CYTOCHROME B PROTEIN CONFERRING RESISTANCE TO QO INHIBITORS XVI” (priority 2023, published 2026):

How the values were obtained:
Type in all cases: in vivo
Alternaria solani = test: Use Example 1: preventative fungicidal control of early blight on tomatoes (ALTESO P1); settings: 63 ppm, tomato, treated 1 day before inoculation, F129L strain, assessed after 5 days, untreated 85
Experimental: (§1) The compound was dissolved in a mixture of acetone and/or dimethylsulfoxide and the wetting agent/emulsifier Wettol, which is based on ethoxylated alkylphenoles, in a ratio (volume) solvent-emulsifier of 99 to 1 to give a total volume of 5 ml. Subsequently, water was added to total volume of 100 ml. This stock solution was then diluted with the described solvent-emulsifier-water mixture to the final concentration given in the tables below.
Use Example 1. Preventative Fungicidal Control of Early Blight on Tomatoes (Alternaria solani) (ALTESO P1)
Young seedlings of tomato plants were grown in pots. These plants were sprayed to run-off with previously described spray solution, containing the concentration of active ingredient or mixture mentioned in the table below. The next day the treated plants were inoculated with an aqueous suspension of Alternaria solani. The strain used contains the amino acid substitution F129L in the mitochondrial cytochrome b protein conferring resistance to Qo inhibitors. Then the trial plants were immediately transferred to a humid chamber. After 5 days at 18 to 20° C. and a saturated relative humidity, the extent of fungal attack on the leaves was visually assessed as % diseased leaf area.

Puccinia sorghi = test: Use Example 8: protective control of corn rust on corn (PUCCSO P1); settings: 16 ppm, untreated 80%
Experimental: as §1
Use Example 8. Protective Control of Corn Rust on Corn Caused by Puccinia sorghi (PUCCSO P1)
The primary leaves of potted corn seedling were sprayed to run-off with previously described spray solution, containing the concentration of active ingredient or their mixture as described below. One day later the plants were dusted with before harvested spores of Puccinia sorghi. To ensure the success of the artificial inoculation, the plants were transferred to a humid chamber without light and a relative humidity of […] and 20 to 24° C. and were there incubated for about fourteen days. The extent of fungal attack on the primary leaves was visually assessed as % diseased leaf area.

Sclerotinia sclerotiorum = test: Use Example 13: preventative fungicidal control of white mold on soy beans (SCLESC P1 mycelium); settings: 63 ppm, untreated 85%
Experimental: as §1
Use Example 13. Preventative Fungicidal Control of White Mold on Soy Beans Caused by Sclerotinia sclerotiorum (SCLESC P1 Mycelium)
Young seedlings of soy beans were grown in pots. These plants were sprayed to run-off with previously described spray solution, containing the concentration of active ingredient or mixture mentioned in the table below. The next day the treated plants were inoculated with a biomalt suspension, containing the mycelium of Sclerotinia sclerotiorum. Then the trial plants were cultivated for 6 days in a greenhouse chamber at 23° C. and a relative humidity between 80 and 85%. The extent of fungal attack on the leaves was visually assessed as % diseased leaf area.

Row | SMILES | Diseased leaf area (%) (Alternaria solani) | Diseased leaf area (%) (Puccinia sorghi) | Diseased leaf area (%) (Sclerotinia sclerotiorum)
1 | COC/C(=N\OCc1c(C)cccc1/C(=N\OC)C(=O)OC)c1c(F)cc(F)cc1F [Compound 2, methyl (2E)-2-methoxyimino-2-[2-[[(Z)-[2-methoxy-1-(2,4,6-trifluorophenyl)ethylidene]amino]oxymethyl]-3-methyl-phenyl]acetate] | 13% | – | –
2 | CNC(=O)/C(=N/OC)c1cccc(C)c1CO/N=C(\COC)c1c(F)cc(OC)cc1F [Compound 7, (2E)-2-[2-[[(Z)-[1-(2,6-difluoro-4-methoxy-phenyl)-2-methoxy-ethylidene]amino]oxymethyl]-3-methyl-phenyl]-2-methoxyimino-N-methyl-acetamide] | – | 12% | 4%
3 | CO/C=C(/C(=O)OC)c1cccc(C)c1CO/N=C(\COC)c1ccc(F)cc1Cl [Compound 3] | 5% | – | –
4 | CO/C=C(/C(=O)OC)c1cccc(C)c1CO/N=C(\COC)c1c(F)cc(F)cc1F [Compound 4, methyl (E)-3-methoxy-2-[2-[[(Z)-[2-methoxy-1-(2,4,6-trifluorophenyl)ethylidene]amino]oxymethyl]-3-methyl-phenyl]prop-2-enoate] | 5% | – | –
5 | CNC(=O)/C(=N/OC)c1cccc(C)c1CO/N=C(\COC)c1ccc(F)c(F)c1 [Compound 5, (2E)-2-[2-[[(Z)-[1-(3,4-difluorophenyl)-2-methoxy-ethylidene]amino]oxymethyl]-3-methylphenyl]-2-methoxyimino-N-methyl-acetamide] | 3% | 0% | –
6 | CNC(=O)/C(=N/OC)c1cccc(C)c1CO/N=C(\COC)c1c(F)cc(F)cc1F [Compound 1, (2E)-2-methoxyimino-2-[2-[[(Z)-[2-methoxy-1-(2,4,6-trifluorophenyl)ethylidene]amino]oxymethyl]-3-methyl-phenyl]-N-methyl-acetamide] | 11% | – | –
